According to PubChem BioAssay (NCI):
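These data come from cells grown in 96-well plates and exposed to compound for 48 hours at five concentrations. Abbreviation: GI50, concentration required for 50% inhibition of growth. TGI denotes the concentration required for complete inhibition of growth.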

Columns and labels:
Experiment in all cases: NCI anticancer screen, dose series, 48 h
[1] = tested on: IGROV1 ovarian
[2] = tested on: COLO 205 colon
[3] = tested on: HL-60(TB) leukemia
[4] = tested on: NCI/ADR-RES ovarian
[5] = tested on: HCT-15 colon
[6] = tested on: UO-31 renal
[7] = tested on: SN12C renal
[8] = tested on: HOP-62 NSCLC
[9] = tested on: CAKI-1 renal
[10] = tested on: OVCAR-8 ovarian
[11] = tested on: SK-MEL-2 melanoma
[12] = tested on: HOP-92 NSCLC
[13] = tested on: CCRF-CEM leukemia
[14] = tested on: M14 melanoma
[15] = tested on: SF-295 CNS
[16] = tested on: SK-MEL-5 melanoma
[17] = tested on: T-47D breast
[18] = tested on: ACHN renal
[19] = tested on: EKVX NSCLC
[20] = tested on: RXF 393 renal
[21] = tested on: MALME-3M melanoma
[22] = tested on: UACC-257 melanoma
[23] = tested on: 786-0 renal
[24] = tested on: MCF7 breast
[25] = tested on: SF-539 CNS
[26] = tested on: MOLT-4 leukemia
[27] = tested on: OVCAR-4 ovarian
[28] = tested on: UACC-62 melanoma
[29] = tested on: SNB-19 CNS
[30] = tested on: RPMI-8226 leukemia
[31] = tested on: DU-145 prostate
[32] = tested on: LOX IMVI melanoma
[33] = tested on: NCI-H23 lung
[34] = tested on: HS 578T breast
[35] = tested on: BT-549 breast
[36] = tested on: OVCAR-5 ovarian
[37] = tested on: SK-OV-3 ovarian
[38] = tested on: PC-3 prostate
[39] = tested on: SK-MEL-28 melanoma
[40] = tested on: NCI-H460 lung
[41] = tested on: HCT-116 colon
[42] = tested on: K-562 leukemia
[43] = tested on: SW-620 colon
[44] = tested on: MDA-MB-435
[45] = tested on: A549 NSCLC
[46] = tested on: U251 CNS
[47] = tested on: NCI-H522 lung
[48] = tested on: A498 renal
[49] = tested on: MDA-MB-231 breast
[50] = tested on: HCC-2998 colon
[51] = tested on: SNB-75 CNS
[52] = tested on: HT29 colon
[53] = tested on: OVCAR-3 ovarian
[54] = tested on: KM12 colon
[55] = tested on: SF-268 CNS
[56] = tested on: TK-10 renal
[57] = tested on: NCI-H226 lung

## NC(=O)[C@@H](CCC(F)(F)F)N(Cc1ccc(-c2ncon2)cc1F)S(=O)(=O)c1ccc(Cl)cc1
[1]
  GI50: 51.7 µM
  TGI: > 100 µM
[2]
  GI50: 27.4 µM
  TGI: > 57.2 µM
[3]
  GI50: 23.7 µM
  TGI: 65.6 µM
[4]
  GI50: 47.5 µM
  TGI: > 100 µM
[5]
  GI50: 69.6 µM
  TGI: > 100 µM
[6]
  GI50: 13.1 µM
  TGI: > 100 µM
[7]
  GI50: 25.8 µM
  TGI: > 57.8 µM
[8]
  GI50: > 43.2 µM
  TGI: > 64.5 µM
[9]
  GI50: 13.7 µM
  TGI: > 62.8 µM
[10]
  GI50: 46.8 µM
  TGI: > 100 µM
[11]
  GI50: 29.7 µM
  TGI: > 63.9 µM
[12]
  GI50: 8.88 µM
  TGI: 43.3 µM
[13]
  GI50: 20.8 µM
  TGI: > 100 µM
[14]
  GI50: 22.2 µM
  TGI: > 52.6 µM
[15]
  GI50: 35.3 µM
  TGI: > 100 µM
[16]
  GI50: 15.8 µM
  TGI: 33.2 µM
[17]
  GI50: 21.3 µM
  TGI: > 78.7 µM
[18]
  GI50: 26.7 µM
  TGI: > 73.2 µM
[19]
  GI50: > 90.3 µM
  TGI: > 100 µM
[20]
  GI50: 20.8 µM
  TGI: > 100 µM
[21]
  GI50: 32 µM
  TGI: > 73.7 µM
[22]
  GI50: 27.3 µM
  TGI: > 85.6 µM
[23]
  GI50: > 40.5 µM
  TGI: > 59 µM
[24]
  GI50: 28.4 µM
  TGI: > 100 µM
[25]
  GI50: 31 µM
  TGI: > 62.6 µM
[26]
  GI50: 16.3 µM
  TGI: 54.7 µM
[27]
  GI50: 44.5 µM
  TGI: > 100 µM
[28]
  GI50: 18.2 µM
  TGI: > 50.7 µM
[29]
  GI50: > 50.6 µM
  TGI: > 100 µM
[30]
  GI50: 14.5 µM
  TGI: 64.4 µM
[31]
  GI50: > 67.1 µM
  TGI: > 100 µM
[32]
  GI50: 29.9 µM
  TGI: > 100 µM
[33]
  GI50: 36.1 µM
  TGI: > 100 µM
[34]
  GI50: 28.8 µM
  TGI: > 100 µM
[35]
  GI50: 32.6 µM
  TGI: > 59 µM
[36]
  GI50: > 49.5 µM
  TGI: > 100 µM
[37]
  GI50: > 50.7 µM
  TGI: > 89.9 µM
[38]
  GI50: 12.6 µM
  TGI: > 100 µM
[39]
  GI50: 45.5 µM
  TGI: > 100 µM
[40]
  GI50: 30.6 µM
  TGI: > 100 µM
[41]
  GI50: 35.3 µM
  TGI: > 61.7 µM
[42]
  GI50: 34.9 µM
  TGI: > 100 µM
[43]
  GI50: > 59.9 µM
  TGI: > 100 µM
[44]
  GI50: 21.3 µM
  TGI: > 59.1 µM
[45]
  GI50: 36.7 µM
  TGI: > 100 µM
[46]
  GI50: > 49 µM
  TGI: > 100 µM
[47]
  GI50: 48.8 µM
  TGI: > 100 µM
[48]
  GI50: 8.86 µM
  TGI: > 62.7 µM
[49]
  GI50: 36.3 µM
  TGI: > 100 µM
[50]
  GI50: > 68.9 µM
  TGI: > 100 µM
[51]
  GI50: 53.3 µM
  TGI: > 100 µM
[52]
  GI50: 21.3 µM
  TGI: > 58.7 µM
[53]
  GI50: 23.6 µM
  TGI: > 60.5 µM
[54]
  GI50: 23.1 µM
  TGI: > 56.3 µM
[55]
  GI50: 39.6 µM
  TGI: > 100 µM
[56]
  GI50: 21 µM
  TGI: > 63.5 µM
[57]
  GI50: > 54.1 µM
  TGI: > 100 µM
